Reference: paper PMC2957683, “IKKβ inhibitor identification: a multi-filter driven novel scaffold” (2010)

Target: T1, IKKβ (Homo sapiens, UniProt O14920)
T1 construct: gene IKBKB
T1 sequence (O14920 1-756): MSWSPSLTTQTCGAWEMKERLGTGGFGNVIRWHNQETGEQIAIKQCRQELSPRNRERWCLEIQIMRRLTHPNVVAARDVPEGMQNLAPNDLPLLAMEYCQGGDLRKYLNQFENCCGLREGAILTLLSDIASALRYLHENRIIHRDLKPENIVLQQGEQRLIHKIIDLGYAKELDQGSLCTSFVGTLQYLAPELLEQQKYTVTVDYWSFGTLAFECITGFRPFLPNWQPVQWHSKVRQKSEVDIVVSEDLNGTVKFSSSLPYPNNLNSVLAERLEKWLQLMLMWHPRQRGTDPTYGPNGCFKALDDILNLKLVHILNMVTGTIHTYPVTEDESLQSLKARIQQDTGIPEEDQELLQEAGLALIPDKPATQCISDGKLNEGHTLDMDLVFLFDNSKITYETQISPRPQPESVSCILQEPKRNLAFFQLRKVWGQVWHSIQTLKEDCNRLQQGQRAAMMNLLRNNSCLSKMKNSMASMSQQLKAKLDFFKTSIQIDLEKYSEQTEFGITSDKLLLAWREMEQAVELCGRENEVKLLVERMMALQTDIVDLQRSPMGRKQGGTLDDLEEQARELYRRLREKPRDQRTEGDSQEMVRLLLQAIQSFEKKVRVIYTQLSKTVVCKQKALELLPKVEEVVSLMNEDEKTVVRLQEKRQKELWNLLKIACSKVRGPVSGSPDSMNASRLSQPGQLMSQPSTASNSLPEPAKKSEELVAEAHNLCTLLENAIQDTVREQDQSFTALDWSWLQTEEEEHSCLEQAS
Assay: IMAP TR-FRET kinase assay with IKKβ enzyme (Millipore), IκBα-derived peptide substrate, […] ATP
Assay type: biochemical

IC50 [µM] | Structure (SMILES)
20.3 | COc1ccc(-c2nc3c(c(SCC(=O)Nc4cccc(O)c4)n2)Cc2c(CO)cnc(C)c2O3)cc1 [VH01]
0.17 | N#Cc1c(C2CCCNC2)cc(-c2ccccc2O)nc1N (centres unmarked) [Bayer-5a]
